Source: article PMC8271847, “In Silico Approach Using Free Software to Optimize the Antiproliferative Activity and Predict the Potential Mechanism of Action of Pyrrolizine-Based Schiff Bases” (Molecules, 2021)
Read-outs that look alike come from different tables or passages of the source.

Key:
MCF7 cells [1] = assay: MTT antiproliferative activity assay, MCF7; assay type: cell-based; settings: for IC50: Homo sapiens, MCF7, MTT, 72 h, mean ± S.D. (n = 3); for Selectivity Index MCF7: IC50 against MRC5 divided by IC50 against MCF7
Description: (§1) The antiproliferative activities of the eight Schiff bases 16a–h against three cancer cell lines (MCF-7, A2780, and HT29) were evaluated using the MTT assay. The selection of these cell lines was done to compare the antiproliferative activities of the new compounds with those of compound 10 [20]. The assay was performed following the previous report.
(§2) In the current study, the three cancer cell lines (MCF7, A2780, and HT29) used were obtained from the ATCC. The cell lines were cultured following our previous report. On the other hand, the normal MRC5 cells used in the current study were maintained in Eagle’s minimum essential medium following the previous report.
(§3) The antiproliferative activity was measured using the MTT assay according to the previous report. Briefly, the cancer/normal cell lines were cultured in 96-well (3 × 10^3/well) separately. The cells were treated by tested compounds 16a–h in final concentrations of 0, 0.1, 1, 10, 25, and 50 μM and incubated at 37 °C for 72 h. The MTT was added and the antiproliferative activities (IC50 values) of the new compounds were calculated.

A2780 cells [2] = assay: MTT antiproliferative activity assay, A2780; assay type: cell-based; settings: for IC50: Homo sapiens, A2780, MTT, 72 h, mean ± S.D. (n = 3); for Selectivity Index A2780: IC50 against MRC5 divided by IC50 against A2780
Description: as §1, §2, §3

[3] = MTT assay against normal MRC5 cells; assay type: cell-based; settings: human, 72 h treatment, mean ± SD (n = 3)
Description: Selectivity of the antiproliferative agents toward cancer cells plays a critical role in the development of these agents as potential anticancer drugs. […] In the current study, all of the new compounds 16a–h were evaluated for the antiproliferative activities against the normal MRC5 cells. […] The aim of this study was to assess the toxicity of the new compounds against normal MRC5 cells. In addition, the IC50 values were also used to calculate the selectivity index (SI) which measures the selective cytotoxicity of the new compounds.
as §2, §3

HT29 cells [4] = assay: MTT antiproliferative activity assay, HT29; assay type: cell-based; settings: for IC50: Homo sapiens, HT-29, MTT, 72 h, mean ± S.D. (n = 3); for Selectivity Index HT29: IC50 against MRC5 divided by IC50 against HT29
Description: as §1, §2, §3

[5] = system: MCF7, A2780 and HT29 cancer cell lines; assay: MTT antiproliferative activity assay, three cancer cell lines together; assay type: cell-based; settings: for Selectivity index range toward the three cancer cell lines: MCF7, A2780, HT29 compared to MRC5 cells; for IC50: MCF7, A2780 and HT29, MTT, 72 h, read-out: IC50 range against the three cancer cell lines
Description: as §1, §2, §3

MCF7 cells [6] = assay: Cell cycle analysis by flow cytometry; assay type: cell-based; settings: MCF7 cells, 0.01, 0.05, 0.10 μM, 72 h
Description: Cell cycle analysis of MCF7 cells was also performed to investigate the mechanism which mediates the antiproliferative activity of the new compounds. […] The assay was performed according to the previous report. The results are represented in Figure 11.
The effect of compound 16g on the cell cycle distribution of MCF7 was performed following the previous report. Briefly, the cancer cells were cultured for 72 h with 0.00, 0.01, 0.05, and 0.10 μM final concentration of compound 16g. Next, the cells were washed with PBS x1 and trypsinized. The collected cells were spinned and fixed with 70% ethanol. Ribonuclease A was added (15 min) after suspending the cells in cold PBS x1. Following the addition of propidium iodide, analysis of the ice-cold cells was done by flow cytometry (BC, FC500, Brea, CA, USA).

COX-1 = system: COX-1; set-up: method as in PMID 26994693; settings: Figure 2; cited from earlier work
COX-2 = settings: cited from earlier work
5-LOX = system: 5-LOX; set-up: method as in PMID 26994693; settings: Figure 2; cited from earlier work
HT29 cells [7] = system: HT29 cells; set-up: method as in PMID 31259695; settings: quoted from previous publication; cited from earlier work
[8] = system: MCF7, A2780 and HT29 cancer cell lines; set-up: method as in PMID 31259695; settings: read-out: IC50 range against the three cancer cell lines; cited from earlier work
A2780 cells [9] = system: A2780 cells; set-up: method as in PMID 31259695; settings: quoted from previous publication; cited from earlier work
MCF7 cells [10] = system: MCF7 cells; set-up: method as in PMID 31259695; settings: quoted from previous publication; cited from earlier work
MCF7 = settings: Figure 2; cited from earlier work
A549 cells = settings: cited from earlier work
[11] = Figure 2, read-out: IC50 (COX-2)

SMILES	IC50 (MCF7 cells [1]) [µM]	Selectivity Index MCF7 (MCF7 cells [1])	IC50 (A2780 cells [2]) [µM]	Selectivity Index A2780 (A2780 cells [2])	IC50 at 72 h [3] [µM]	melting point [°C]	IC50 (HT29 cells [4]) [µM]	Selectivity Index HT29 (HT29 cells [4])	other results
CN(C)c1ccc(C=Nc2c(C#N)c3n(c2C(=O)Nc2ccc(F)cc2)CCC3)cc1 [Compound 16b, 7-Cyano-6-((4-(dimethylamino)benzylidene)amino)-N-(4-fluorophenyl)-2,3-dihydro-1H-pyrrolizine-5-carboxamide]	0.08 ± 0.01	15.88	0.9 ± 0.08	1.41	1.27 ± 0.32	244 to 246	10.2 ± 0.12	0.12	
COc1ccc(NC(=O)c2c(N=Cc3ccc(N(C)C)cc3)c(C#N)c3n2CCC3)cc1 [Compound 16a, 7-Cyano-6-((4-(dimethylamino)benzylidene)amino)-N-(4-methoxyphenyl)-2,3-dihydro-1H-pyrrolizine-5-carboxamide]	40.5 ± 10.6	0.03	13.9 ± 1.92	0.09	1.27 ± 0.48	226 to 228	0.19 ± 0.02	6.68	Selectivity index range toward the three cancer cell lines [5]: 0.03–6.68; IC50 [5]: 0.19 to 40.5 µM
COc1ccc(NC(=O)c2c(N=Cc3ccc(C)cc3)c(C#N)c3n2CCC3)cc1 [Compound 16c, 7-Cyano-N-(4-methoxyphenyl)-6-((4-methylbenzylidene)amino)-2,3-dihydro-1H-pyrrolizine-5-carboxamide]	0.03 ± 0.01		0.14 ± 0.02		24.1 ± 1.31	231 to 233	2.27 ± 0.61	10.60	
COc1ccc(NC(=O)c2c(N=Cc3ccc(Cl)cc3)c(C#N)c3n2CCC3)cc1 [Compound 16g, 6-((4-Chlorobenzylidene)amino)-7-cyano-N-(4-methoxyphenyl)-2,3-dihydro-1H-pyrrolizine-5-carboxamide]	0.01		0.56 ± 0.01	10.32	5.78 ± 0.63	241 to 243	0.37 ± 0.18	15.62	Cell cycle perturbation (MCF7 cells [6]): cell cycle arrest at the G2/M phase; Selectivity index range toward the three cancer cell lines [5]: 10.32–578.00
COc1ccc(NC(=O)c2c(N=Cc3ccc(F)cc3)c(C#N)c3n2CCC3)cc1 [Compound 16e, 7-Cyano-6-((4-fluorobenzylidene)amino)-N-(4-methoxyphenyl)-2,3-dihydro-1H-pyrrolizine-5-carboxamide]	0.15 ± 0.02	18.47	1.4 ± 0.21	1.98	2.77 ± 0.09	239 to 241	0.34 ± 0.03	8.15	
CS(=O)(=O)CCNCc1ccc(-c2ccc3ncnc(Nc4ccc(OCc5cccc(F)c5)c(Cl)c4)c3c2)o1 [Lapatinib, lapatinib, reference compound]	5.98 ± 1.31	2.49	9.86 ± 1.72	1.51	14.9 ± 2.45		13.2 ± 1.82	1.13	IC50 [5]: 5.98 to 13.2 µM
Cc1ccc(-c2c(-c3ccc(S(C)(=O)=O)cc3)cn3c2CCC3)cc1 [Compound 9]									IC50 (COX-1): 0.7 µM; IC50 (COX-2; [11]): 0.005 µM; IC50 (5-LOX): 10 µM
Cc1ccc(NC(=O)c2c(/N=C/c3ccc(Cl)cc3)c(C#N)c3n2CCC3)cc1 [Compound 10]									IC50 (HT29 cells [7]): 0.41 ± 0.02 µM; IC50 [8]: 0.33 to 0.44 µM; IC50 (A2780 cells [9]): 0.44 ± 0.01 µM; IC50 (MCF7 cells [10]): 0.33 ± 0.12 µM
N#Cc1c(N=Cc2ccc(Cl)cc2)c(C(=O)Nc2ccc(F)cc2)n2c1CCC2 [Compound 16h, 6-((4-Chlorobenzylidene)amino)-7-cyano-N-(4-fluorophenyl)-2,3-dihydro-1H-pyrrolizine-5-carboxamide]	26.9 ± 1.67	0.06	42.6 ± 3.47	0.04	1.6 ± 0.12	262 to 264	0.71 ± 0.29	2.25	
CC1(C)Cc2c(-c3ccccc3)c(-c3ccc(Cl)cc3)c(CC(=O)O)n2C1 [Licofelone]									IC50 (MCF7): 5.5 µM; IC50 (COX-2; [11]): 4.7 µM
O=C(c1ccccc1)c1ccc2n1CCC2C(=O)O (stereo not shown) [Ketorolac, ketorolac]									IC50 (A549 cells): ~13 µM; IC50 (COX-2; [11]): 0.14 µM
COC1c2c(-c3ccccc3)c(-c3ccc(Cl)cc3)c(C)n2CC1(C)C (stereo not shown) [Compound 8]									IC50 (COX-1): 0.5 µM; IC50 (COX-2; [11]): 7.5 µM; IC50 (5-LOX): 0.06 µM
Cc1ccc(C=Nc2c(C#N)c3n(c2C(=O)Nc2ccc(F)cc2)CCC3)cc1 [Compound 16d, 7-Cyano-N-(4-fluorophenyl)-6-((4-methylbenzylidene)amino)-2,3-dihydro-1H-pyrrolizine-5-carboxamide]	7.05 ± 0.28	0.34	21.2 ± 2.43	0.11	2.42 ± 0.56	241 to 243	0.17 ± 0.01	14.24	
N#Cc1c(N=Cc2ccc(F)cc2)c(C(=O)Nc2ccc(F)cc2)n2c1CCC2 [Compound 16f, 7-Cyano-6-((4-fluorobenzylidene)amino)-N-(4-fluorophenyl)-2,3-dihydro-1H-pyrrolizine-5-carboxamide]	40.5 ± 7.7	0.03	0.49 ± 0.12	2.73	1.34 ± 0.45	253 to 255	0.21 ± 0.12	6.38	
CS(=O)(=O)c1ccc(C2=C(c3ccccc3)C(=O)OC2)cc1 [Rofecoxib, rofecoxib]									IC50 (COX-2; read-out: IC50 against COX-2): 0.53 µM
